Data reported in the supplement of paper PMC10307832.

How the values were obtained:
Experiment in all cases: relative viability (nuclei count vs DMSO), 5 days (fraction); higher = more cells survive
Cediranib + Trametinib = compound: COc1cc2c(Oc3ccc4[nH]c(C)cc4c3F)ncnc2cc1OCCCN1CCCC1 [Cediranib] + CC(=O)Nc1cccc(-n2c(=O)n(C3CC3)c(=O)c3c(Nc4ccc(I)cc4F)n(C)c(=O)c(C)c32)c1 [Trametinib] (partner 0.02 µM)
Procedure, shortened: (§1)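 Five library-drug doses in √10 steps were combined with a fixed anchor-drug dose, or a single drug was given alone, by pin tool to lung cancer cell lines in 1536-well plates the day after seeding. Nuclei were stained and counted after 5 days. Relative viability is the nuclei count in treated wells over that in vehicle wells, taken as the median of duplicate plates.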

Decitabine + Bortezomib = compound: Nc1ncn([C@H]2C[C@H](O)[C@@H](CO)O2)c(=O)n1 [Decitabine] + CC(C)C[C@H](NC(=O)[C@H](Cc1ccccc1)NC(=O)c1cnccn1)B(O)O [Bortezomib] (partner 0.002 µM)
Procedure, shortened: as §1

Decitabine + Tozasertib = compound: Nc1ncn([C@H]2C[C@H](O)[C@@H](CO)O2)c(=O)n1 [Decitabine] + Cc1cc(Nc2cc(N3CCN(C)CC3)nc(Sc3ccc(NC(=O)C4CC4)cc3)n2)n[nH]1 [Tozasertib] (partner 0.1 µM)
Procedure, shortened: as §1

[1] = compound: O=C(C[C@H]1NCCC[C@@H]1O)Cn1cnc2cc(Br)c(Cl)cc2c1=O (racemic) [Halofuginone] + CC1(C)CCC(c2ccc(Cl)cc2)=C(CN2CCN(c3ccc(C(=O)NS(=O)(=O)c4ccc(N[C@H](CCN5CCOCC5)CSc5ccccc5)c(S(=O)(=O)C(F)(F)F)c4)cc3)CC2)C1 [Navitoclax] (partner 0.5 µM)
Procedure, shortened: as §1

Cell Line	relative viability (Cediranib + Trametinib; first compound 0.04 µM)	relative viability (Cediranib + Trametinib; first compound 0.4 µM)	relative viability (Cediranib + Trametinib; first compound 1.265 µM)	relative viability (Cediranib + Trametinib; first compound 4 µM)	relative viability (Decitabine + Bortezomib; first compound 0.04 µM)	relative viability (Decitabine + Bortezomib; first compound 0.1265 µM)	relative viability (Decitabine + Bortezomib; first compound 0.4 µM)	relative viability (Decitabine + Bortezomib; first compound 1.265 µM)	relative viability (Decitabine + Bortezomib; first compound 4 µM)	relative viability (Decitabine + Tozasertib; first compound 0.04 µM)	relative viability (Decitabine + Tozasertib; first compound 0.1265 µM)	relative viability (Decitabine + Tozasertib; first compound 0.4 µM)	relative viability (Decitabine + Tozasertib; first compound 4 µM)	relative viability ([1]; first compound 0.001 µM)	relative viability ([1]; first compound 0.003162 µM)	relative viability ([1]; first compound 0.01 µM)	relative viability ([1]; first compound 0.03162 µM)	relative viability ([1]; first compound 0.1 µM)	relative viability (Cediranib + Trametinib; first compound 0.1265 µM)	relative viability (Decitabine + Tozasertib; first compound 1.265 µM)
NCI-H3122	0.226	0.218	0.242	0.282	0.973	0.987	0.968	0.782	0.725	0.328	0.369	0.118	0.246	0.994	1.02	0.966	1.01	1.05	–	–
PC-14	0.862	0.66	0.582	0.519	0.35	0.507	0.369	0.221	0.168	0.25	0.182	0.0787	0.0951	1.07	0.941	0.963	0.572	0.154	0.664	0.0922
BEN	1.12	1.02	1.02	0.986	0.779	0.779	0.539	0.427	0.481	0.443	0.454	0.421	0.355	0.0684	0.132	0.0701	0.0526	0.0549	0.936	0.371
EPLC-272H	0.318	0.278	0.269	0.242	0.884	0.57	–	0.584	0.418	–	0.307	0.0586	0.157	1.14	1.22	0.945	1.21	1.17	–	0.26
